Assay results from ChEMBL document CHEMBL1135259, “Azapeptides as inhibitors of the hepatitis C virus NS3 serine protease” (Bioorg Med Chem Lett, 2002).

Legend:
Parameters in all cases: species or system Hepacivirus hominis
NS3 [1] = molecular target: T1, NS3 (Hepatitis C virus, UniProt A3EZJ3); test: Binding affinity against Hepatitis C virus NS3 protease was calculated as Kcat
NS3 [2] = molecular target: T1, NS3; test: Compound was evaluated for its binding affinity against NS3 protease
NS3 [3] = molecular target: T1, NS3; test: Binding affinity against Hepatitis C virus NS3 protease

T1 sequence (A3EZJ3 whole entry): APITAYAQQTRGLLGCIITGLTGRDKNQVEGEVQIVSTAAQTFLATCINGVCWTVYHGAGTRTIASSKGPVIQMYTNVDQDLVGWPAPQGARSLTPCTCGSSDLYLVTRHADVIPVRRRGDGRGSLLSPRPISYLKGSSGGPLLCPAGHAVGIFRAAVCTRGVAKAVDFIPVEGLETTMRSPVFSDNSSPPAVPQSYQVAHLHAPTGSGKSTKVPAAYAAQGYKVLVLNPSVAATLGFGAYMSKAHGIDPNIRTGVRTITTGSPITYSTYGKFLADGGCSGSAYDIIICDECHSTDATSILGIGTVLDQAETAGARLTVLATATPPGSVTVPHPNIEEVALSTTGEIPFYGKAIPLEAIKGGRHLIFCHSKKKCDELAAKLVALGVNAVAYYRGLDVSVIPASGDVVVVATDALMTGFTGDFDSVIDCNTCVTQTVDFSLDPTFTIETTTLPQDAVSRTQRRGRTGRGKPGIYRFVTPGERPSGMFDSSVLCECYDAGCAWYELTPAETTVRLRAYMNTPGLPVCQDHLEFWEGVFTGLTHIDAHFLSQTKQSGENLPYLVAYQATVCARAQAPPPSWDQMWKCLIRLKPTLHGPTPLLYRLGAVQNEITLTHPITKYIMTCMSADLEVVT

Molecule `CCCN(NC(=O)[C@H]1CCCN1C(=O)[C@@H](NC(=O)[C@@H](NC(=O)[C@H](CC(=O)O)NC(=O)[C@H](CCC(=O)O)NC(=O)[C@@H](NC(=O)[C@H](CC(=O)O)NC(C)=O)[C@@H](C)O)C(C)C)C(C)C)C(=O)Oc1ccc([N+](=O)[O-])cc1` has a Ki (NS3 [1]) of 0.5 min⁻¹, a Ki (NS3 [2]) of 3 µM and a Ki (NS3 [3]) of 2 µM.

For `CCCN(NC(=O)[C@H]1CCCN1C(=O)[C@@H](NC(=O)[C@@H](NC(=O)[C@H](CC(=O)O)NC(=O)[C@H](CCC(=O)O)NC(=O)[C@@H](NC(=O)[C@H](CC(=O)O)NC(C)=O)[C@@H](C)O)C(C)C)C(C)C)C(=O)c1ccc(/N=N\c2ccc([N+](=O)[O-])cc2)cc1`, the Ki (NS3 [3]) was over 100 µM.

`CCCN(NC(=O)[C@H]1CCCN1C(=O)[C@@H](NC(=O)[C@@H](NC(=O)[C@H](CC(=O)O)NC(=O)[C@H](CCC(=O)O)NC(=O)[C@@H](NC(=O)[C@H](CC(=O)O)NC(C)=O)[C@@H](C)O)C(C)C)C(C)C)C(=O)OC(C)(C)C(Cl)(Cl)Cl` showed a Ki (NS3 [3]) of over 100 µM.

Work on `CCCN(NC(=O)[C@H]1CCCN1C(=O)[C@@H](NC(=O)[C@@H](NC(=O)[C@H](CC(=O)O)NC(=O)[C@H](CCC(=O)O)NC(=O)[C@@H](NC(=O)[C@@H](N)CC(=O)O)[C@@H](C)O)C(C)C)C(C)C)C(=O)N[C@@H](CO)C(=O)N[C@@H](CCSC)C(=O)N[C@@H](CO)C(=O)N[C@@H](Cc1ccc(O)cc1)C(=O)N[C@H](C(=O)N[C@@H](Cc1c[nH]c2ccccc12)C(=O)N[C@H](C(=O)NCC(=O)N[C@@H](CCCCN)C(=O)O)[C@@H](C)O)[C@@H](C)O` yielded a Ki (NS3 [3]) of 20 µM.

Molecule `CCCC(=O)N(CCC)NC(=O)[C@H]1CCCN1C(=O)[C@@H](NC(=O)[C@@H](NC(=O)[C@H](CC(=O)O)NC(=O)[C@H](CCC(=O)O)NC(=O)[C@@H](NC(=O)[C@H](CC(=O)O)NC(C)=O)[C@@H](C)O)C(C)C)C(C)C` has a Ki (NS3 [3]) of over 100 µM.
